# Reference: PubChem BioAssay (NCI)
#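 Cells were grown in 96-well plates and exposed to each compound for 48 hours at five concentrations; endpoints were interpolated linearly between bracketing concentrations, or set to the highest concentration if not reached. TGI: concentration producing complete growth inhibition.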
# What was measured:
# Assay in all cases: NCI anticancer screen, dose series, 48 h
# 786-0 renal = test system: 786-0 renal
# A549 NSCLC = test system: A549 NSCLC
# ACHN renal = test system: ACHN renal
# BT-549 breast = test system: BT-549 breast
# CAKI-1 renal = test system: CAKI-1 renal
# CCRF-CEM leukemia = test system: CCRF-CEM leukemia
# COLO 205 colon = test system: COLO 205 colon
# DU-145 prostate = test system: DU-145 prostate
# EKVX NSCLC = test system: EKVX NSCLC
# HCC-2998 colon = test system: HCC-2998 colon
# HCT-116 colon = test system: HCT-116 colon
# HCT-15 colon = test system: HCT-15 colon
# HL-60(TB) leukemia = test system: HL-60(TB) leukemia
# HOP-62 NSCLC = test system: HOP-62 NSCLC
# HOP-92 NSCLC = test system: HOP-92 NSCLC
# HS 578T breast = test system: HS 578T breast
# HT29 colon = test system: HT29 colon
# IGROV1 ovarian = test system: IGROV1 ovarian
# K-562 leukemia = test system: K-562 leukemia
# KM12 colon = test system: KM12 colon
# LOX IMVI melanoma = test system: LOX IMVI melanoma
# M14 melanoma = test system: M14 melanoma
# MALME-3M melanoma = test system: MALME-3M melanoma
# MCF7 breast = test system: MCF7 breast
# MDA-MB-231 breast = test system: MDA-MB-231 breast
# MDA-MB-435 = test system: MDA-MB-435
# MDA-N = test system: MDA-N
# MOLT-4 leukemia = test system: MOLT-4 leukemia
# NCI-H226 lung = test system: NCI-H226 lung
# NCI-H23 lung = test system: NCI-H23 lung
# NCI-H522 lung = test system: NCI-H522 lung
# NCI/ADR-RES ovarian = test system: NCI/ADR-RES ovarian
# OVCAR-3 ovarian = test system: OVCAR-3 ovarian
# OVCAR-4 ovarian = test system: OVCAR-4 ovarian
# OVCAR-5 ovarian = test system: OVCAR-5 ovarian
# OVCAR-8 ovarian = test system: OVCAR-8 ovarian
# PC-3 prostate = test system: PC-3 prostate
# RPMI-8226 leukemia = test system: RPMI-8226 leukemia
# SF-268 CNS = test system: SF-268 CNS
# SF-295 CNS = test system: SF-295 CNS
# SF-539 CNS = test system: SF-539 CNS
# SK-MEL-2 melanoma = test system: SK-MEL-2 melanoma
# SK-MEL-28 melanoma = test system: SK-MEL-28 melanoma
# SK-MEL-5 melanoma = test system: SK-MEL-5 melanoma
# SK-OV-3 ovarian = test system: SK-OV-3 ovarian
# SN12C renal = test system: SN12C renal
# SNB-19 CNS = test system: SNB-19 CNS
# SNB-75 CNS = test system: SNB-75 CNS
# SR leukemia = test system: SR leukemia
# SW-620 colon = test system: SW-620 colon
# T-47D breast = test system: T-47D breast
# TK-10 renal = test system: TK-10 renal
# U251 CNS = test system: U251 CNS
# UACC-257 melanoma = test system: UACC-257 melanoma
# UACC-62 melanoma = test system: UACC-62 melanoma
# UO-31 renal = test system: UO-31 renal
# A498 renal = test system: A498 renal
# NCI-H460 lung = test system: NCI-H460 lung
# RXF 393 renal = test system: RXF 393 renal
compound,measurement,setting,value
CCCCCCOP(=O)(OCCCCCC)OC(C(=O)OC)C(F)(F)F (configuration not stated),TGI,786-0 renal,> 100 µM
same,TGI,A549 NSCLC,> 100 µM
same,TGI,ACHN renal,> 100 µM
same,TGI,BT-549 breast,> 100 µM
same,TGI,CAKI-1 renal,> 100 µM
same,TGI,CCRF-CEM leukemia,> 100 µM
same,TGI,COLO 205 colon,> 100 µM
same,TGI,DU-145 prostate,> 100 µM
same,TGI,EKVX NSCLC,> 100 µM
same,TGI,HCC-2998 colon,> 100 µM
same,TGI,HCT-116 colon,> 100 µM
same,TGI,HCT-15 colon,> 100 µM
same,TGI,HL-60(TB) leukemia,> 100 µM
same,TGI,HOP-62 NSCLC,> 100 µM
same,TGI,HOP-92 NSCLC,> 100 µM
same,TGI,HS 578T breast,> 100 µM
same,TGI,HT29 colon,> 100 µM
same,TGI,IGROV1 ovarian,> 100 µM
same,TGI,K-562 leukemia,> 100 µM
same,TGI,KM12 colon,> 100 µM
same,TGI,LOX IMVI melanoma,> 100 µM
same,TGI,M14 melanoma,> 100 µM
same,TGI,MALME-3M melanoma,> 100 µM
same,TGI,MCF7 breast,> 100 µM
same,TGI,MDA-MB-231 breast,> 100 µM
same,TGI,MDA-MB-435,> 100 µM
same,TGI,MDA-N,> 100 µM
same,TGI,MOLT-4 leukemia,> 100 µM
same,TGI,NCI-H226 lung,> 100 µM
same,TGI,NCI-H23 lung,> 100 µM
same,TGI,NCI-H522 lung,> 100 µM
same,TGI,NCI/ADR-RES ovarian,> 100 µM
same,TGI,OVCAR-3 ovarian,> 100 µM
same,TGI,OVCAR-4 ovarian,> 100 µM
same,TGI,OVCAR-5 ovarian,> 100 µM
same,TGI,OVCAR-8 ovarian,> 100 µM
same,TGI,PC-3 prostate,> 100 µM
same,TGI,RPMI-8226 leukemia,> 100 µM
same,TGI,SF-268 CNS,> 100 µM
same,TGI,SF-295 CNS,> 100 µM
same,TGI,SF-539 CNS,> 100 µM
same,TGI,SK-MEL-2 melanoma,> 100 µM
same,TGI,SK-MEL-28 melanoma,> 100 µM
same,TGI,SK-MEL-5 melanoma,> 100 µM
same,TGI,SK-OV-3 ovarian,> 100 µM
same,TGI,SN12C renal,> 100 µM
same,TGI,SNB-19 CNS,> 100 µM
same,TGI,SNB-75 CNS,> 100 µM
same,TGI,SR leukemia,> 100 µM
same,TGI,SW-620 colon,> 100 µM
same,TGI,T-47D breast,> 100 µM
same,TGI,TK-10 renal,> 100 µM
same,TGI,U251 CNS,> 100 µM
same,TGI,UACC-257 melanoma,> 100 µM
same,TGI,UACC-62 melanoma,> 100 µM
same,TGI,UO-31 renal,> 100 µM
O=C(/C=C/c1ccco1)c1cccc(C(=O)/C=C/c2ccco2)n1,TGI,786-0 renal,20.5 µM
same,TGI,A498 renal,> 100 µM
same,TGI,A549 NSCLC,> 100 µM
same,TGI,ACHN renal,72.7 µM
same,TGI,BT-549 breast,78.4 µM
same,TGI,CAKI-1 renal,> 100 µM
same,TGI,COLO 205 colon,> 67.4 µM
same,TGI,DU-145 prostate,> 100 µM
same,TGI,EKVX NSCLC,> 100 µM
same,TGI,HCC-2998 colon,> 100 µM
same,TGI,HCT-116 colon,18.5 µM
same,TGI,HCT-15 colon,28.1 µM
same,TGI,HL-60(TB) leukemia,0.417 µM
same,TGI,HOP-62 NSCLC,> 88.6 µM
same,TGI,HOP-92 NSCLC,> 81.9 µM
same,TGI,HS 578T breast,> 28.4 µM
same,TGI,HT29 colon,37.4 µM
same,TGI,IGROV1 ovarian,53.5 µM
same,TGI,K-562 leukemia,> 100 µM
same,TGI,KM12 colon,> 55.8 µM
same,TGI,LOX IMVI melanoma,5.37 µM
same,TGI,M14 melanoma,> 96.3 µM
same,TGI,MALME-3M melanoma,> 100 µM
same,TGI,MCF7 breast,> 100 µM
same,TGI,MDA-MB-231 breast,> 100 µM
same,TGI,MDA-MB-435,> 100 µM
same,TGI,MDA-N,> 100 µM
same,TGI,MOLT-4 leukemia,6.25 µM
same,TGI,NCI-H226 lung,> 100 µM
same,TGI,NCI-H23 lung,31.8 µM
same,TGI,NCI-H460 lung,> 100 µM
same,TGI,NCI-H522 lung,19.6 µM
same,TGI,NCI/ADR-RES ovarian,> 73.3 µM
same,TGI,OVCAR-3 ovarian,> 100 µM
same,TGI,OVCAR-4 ovarian,> 100 µM
same,TGI,OVCAR-5 ovarian,> 81.9 µM
same,TGI,OVCAR-8 ovarian,8.83 µM
same,TGI,PC-3 prostate,> 100 µM
same,TGI,RXF 393 renal,> 65.1 µM
same,TGI,SF-268 CNS,> 38.9 µM
same,TGI,SF-295 CNS,> 100 µM
same,TGI,SF-539 CNS,17.5 µM
same,TGI,SK-MEL-2 melanoma,> 58.6 µM
same,TGI,SK-MEL-28 melanoma,67.7 µM
same,TGI,SK-MEL-5 melanoma,> 100 µM
same,TGI,SK-OV-3 ovarian,> 100 µM
same,TGI,SN12C renal,32 µM
same,TGI,SNB-19 CNS,> 48.8 µM
same,TGI,SNB-75 CNS,> 100 µM
same,TGI,SR leukemia,6.82 µM
same,TGI,SW-620 colon,10.4 µM
same,TGI,T-47D breast,> 100 µM
same,TGI,TK-10 renal,> 100 µM
same,TGI,U251 CNS,22.6 µM
same,TGI,UACC-257 melanoma,> 100 µM
same,TGI,UACC-62 melanoma,> 100 µM
same,TGI,UO-31 renal,24.9 µM
CCOC(=O)CCCn1cc(C(=O)OC)nn1,TGI,786-0 renal,> 100 µM
same,TGI,A549 NSCLC,> 100 µM
same,TGI,ACHN renal,> 100 µM
same,TGI,BT-549 breast,> 100 µM
same,TGI,CAKI-1 renal,> 100 µM
same,TGI,CCRF-CEM leukemia,> 100 µM
same,TGI,COLO 205 colon,> 100 µM
same,TGI,DU-145 prostate,> 100 µM
same,TGI,EKVX NSCLC,> 100 µM
same,TGI,HCC-2998 colon,> 100 µM
same,TGI,HCT-116 colon,> 100 µM
same,TGI,HCT-15 colon,> 100 µM
same,TGI,HOP-62 NSCLC,> 100 µM
same,TGI,HOP-92 NSCLC,> 100 µM
same,TGI,HS 578T breast,> 100 µM
same,TGI,HT29 colon,> 100 µM
same,TGI,IGROV1 ovarian,> 100 µM
same,TGI,KM12 colon,> 100 µM
same,TGI,LOX IMVI melanoma,> 100 µM
same,TGI,MALME-3M melanoma,> 100 µM
same,TGI,MCF7 breast,> 100 µM
same,TGI,MDA-MB-231 breast,> 100 µM
same,TGI,MDA-MB-435,> 100 µM
same,TGI,MDA-N,> 100 µM
same,TGI,MOLT-4 leukemia,> 100 µM
same,TGI,NCI-H226 lung,> 100 µM
same,TGI,NCI-H23 lung,> 100 µM
same,TGI,NCI-H460 lung,> 100 µM
same,TGI,NCI/ADR-RES ovarian,> 100 µM
same,TGI,OVCAR-4 ovarian,> 100 µM
same,TGI,OVCAR-8 ovarian,> 100 µM
same,TGI,PC-3 prostate,> 100 µM
same,TGI,RXF 393 renal,> 100 µM
same,TGI,SF-268 CNS,> 100 µM
same,TGI,SF-295 CNS,> 100 µM
same,TGI,SF-539 CNS,> 100 µM
same,TGI,SK-MEL-2 melanoma,> 100 µM
same,TGI,SK-MEL-28 melanoma,> 100 µM
same,TGI,SK-MEL-5 melanoma,> 100 µM
same,TGI,SN12C renal,> 100 µM
same,TGI,SNB-19 CNS,> 100 µM
same,TGI,SNB-75 CNS,> 100 µM
same,TGI,SW-620 colon,> 100 µM
same,TGI,T-47D breast,> 100 µM
same,TGI,TK-10 renal,> 100 µM
same,TGI,U251 CNS,> 100 µM
same,TGI,UACC-257 melanoma,> 100 µM
same,TGI,UACC-62 melanoma,> 100 µM
same,TGI,UO-31 renal,> 100 µM
